From ChEMBL document CHEMBL4602666, “Nostotrebin 6 Related Cyclopentenediones and δ-Lactones with Broad Activity Spectrum Isolated from the Cultivation Medium of the Cyanobacterium Nostoc sp. CBT1153” (J Nat Prod, 2020) come the findings set out here.

In experiment [1] the test system is Enterococcus faecium. Briefly: Antibacterial activity against Enterococcus faecium BM4147-1 assessed as reduction cell viability after 16 to 20 hrs by CLSI based two-fold serial dilution method. The experiment is classed as functional.
Experiment [2] has as its system Staphylococcus aureus. In words: Antibacterial activity against Staphylococcus aureus ATCC 29213 assessed as reduction cell viability after 16 to 20 hrs by CLSI based two-fold serial dilution method. It is filed as functional.
Experiment [3] has as its system HeLa. In words: Cytotoxicity against human HeLa cells assessed as reduction in cell viability after 24 hrs by resazurin staining based fluorescence assay. For orientation: Resazurin is reduced to fluorescent resorufin, in cell work by metabolically active cells.
The test system of experiment [4] is Bacillus subtilis. In words: Antibacterial activity against Bacillus subtilis 168 assessed as reduction cell viability after 16 to 20 hrs by CLSI based two-fold serial dilution method. The experiment is classed as functional.
Experiment [5] concerns the target Rhodesain (Trypanosoma brucei rhodesiense, UniProt Q95PM0). In words: Inhibition of Trypanosoma brucei rhodesiense C-terminal full length rhodesain expressed in Pichia pastoris using Cbz-PheArg-AMC as substrate measured every 30 sec for 10 mins by fluorescence based assay.
For experiment [6], the target named is Rhodesain (Trypanosoma brucei rhodesiense) (UniProt Q95PM0). Briefly: Inhibition of Trypanosoma brucei rhodesiense C-terminal full length rhodesain expressed in Pichia pastoris using Cbz-PheArg-AMC as substrate preincubated for 5 to 30 mins followed by substrate and measured every 30 sec for 10 mins by fluorescence based assay.
Rhodesain (Trypanosoma brucei rhodesiense), sequence (Q95PM0 1-450): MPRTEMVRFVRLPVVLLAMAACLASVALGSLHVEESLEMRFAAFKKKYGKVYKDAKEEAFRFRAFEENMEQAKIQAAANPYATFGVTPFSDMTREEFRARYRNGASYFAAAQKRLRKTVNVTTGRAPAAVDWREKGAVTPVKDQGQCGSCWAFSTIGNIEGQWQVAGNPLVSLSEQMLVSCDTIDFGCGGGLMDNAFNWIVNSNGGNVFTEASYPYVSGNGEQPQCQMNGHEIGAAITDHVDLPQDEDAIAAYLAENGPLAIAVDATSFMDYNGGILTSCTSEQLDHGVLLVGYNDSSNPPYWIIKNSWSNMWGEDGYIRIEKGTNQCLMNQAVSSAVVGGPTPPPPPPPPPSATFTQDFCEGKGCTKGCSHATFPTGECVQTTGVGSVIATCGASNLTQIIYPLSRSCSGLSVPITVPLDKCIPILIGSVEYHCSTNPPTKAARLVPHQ
The target is the same in experiment [7]. In words: Inhibition of Trypanosoma brucei rhodesiense C-terminal full length rhodesain expressed in Pichia pastoris at 50 uM using Cbz-PheArg-AMC as substrate measured every 30 sec for 10 mins in presence of 4.75 mM DTT by fluorescence based assay.
The target is the same in experiment [8]. In words: Inhibition of Trypanosoma brucei rhodesiense C-terminal full length rhodesain expressed in Pichia pastoris at 50 uM using Cbz-PheArg-AMC as substrate measured every 30 sec for 10 mins in presence of 0.005 to 0.025 % of Brij-35 by fluorescence based assay.

SMILES strings stand for the structures. ≈ marks a conversion by molar mass, not a printed value. Calls of active or inactive are those of the source.

Rhodesain, sequence (Q95PM0 whole entry): as the sequence (Q95PM0 1-450) above

For the compound `O=c1oc(-c2ccc(O)cc2)cc(Cc2ccc(O)cc2)c1Cc1ccc(O)cc1O`, the MIC in experiment [1] came out at 100 µM (≈ 41.6 µg/mL); in experiment [2], 50 µM (≈ 20.8 µg/mL); in experiment [4], 50 µM (≈ 20.8 µg/mL). Also, the IC50 in experiment [3] came out at 84 µM; in experiment [5], 63 µM.

As to `O=C1C(Cc2ccc(O)cc2)=C(Cc2ccc(O)cc2)C(=O)C1(c1ccc(O)cc1)C1(c2ccc(O)cc2)C(=O)C(Cc2ccc(O)cc2)=C(Cc2ccc(O)cc2)C1=O`, the MIC in experiment [1], in experiment [2] and in experiment [4] was 13 µM (≈ 10.4 µg/mL) throughout. The figures for the IC50 in experiment [3] and in experiment [5] were 16 µM and 15 µM, respectively. The inhibition entry in experiment [6], in experiment [7] and in experiment [8] was “Active” in each case.

Turning to `O=C1C(Cc2ccc(O)cc2)=C(Cc2ccc(O)cc2)C(=O)C1(c1ccc(O)cc1)c1cc(Cc2c(Cc3ccc(O)cc3)cc(-c3ccc(O)cc3)oc2=O)c(O)cc1O`, the MIC came out at 13 µM (≈ 10.6 µg/mL) in experiment [1], 3 µM (≈ 2.44 µg/mL) in experiment [2] and 3 µM (≈ 2.44 µg/mL) in experiment [4]. Further, the IC50 in experiment [3] and in experiment [5] was 33 µM throughout.

In general, MIC refers to the smallest concentration in the dilution series that meets the test's criterion for growth inhibition. As usually defined, the IC50 is the point on the concentration scale where inhibition reaches its midpoint.
